Measured values as given in patent US9533991B2, “Inhibitors of Bruton's tyrosine kinase” (PHARMACYCLICS LLC, priority 2014, dated 2017).

Key:
Format in all cases: biochemical
LCK = LCK (Homo sapiens, UniProt P06239); assay: Inhibition of a panel of kinases: LCK; conditions: kinase panel, Table 2
Description: (§1) The degree of inhibition of a panel of kinases is determined using assays similar to the kinase assay described in Example 53.

EGFR = EGFR (Homo sapiens, UniProt P00533); assay: Inhibition of a panel of kinases: EGFR; conditions: kinase panel, Table 2
Sequence of EGFR (P00533 25-1210, species assumed): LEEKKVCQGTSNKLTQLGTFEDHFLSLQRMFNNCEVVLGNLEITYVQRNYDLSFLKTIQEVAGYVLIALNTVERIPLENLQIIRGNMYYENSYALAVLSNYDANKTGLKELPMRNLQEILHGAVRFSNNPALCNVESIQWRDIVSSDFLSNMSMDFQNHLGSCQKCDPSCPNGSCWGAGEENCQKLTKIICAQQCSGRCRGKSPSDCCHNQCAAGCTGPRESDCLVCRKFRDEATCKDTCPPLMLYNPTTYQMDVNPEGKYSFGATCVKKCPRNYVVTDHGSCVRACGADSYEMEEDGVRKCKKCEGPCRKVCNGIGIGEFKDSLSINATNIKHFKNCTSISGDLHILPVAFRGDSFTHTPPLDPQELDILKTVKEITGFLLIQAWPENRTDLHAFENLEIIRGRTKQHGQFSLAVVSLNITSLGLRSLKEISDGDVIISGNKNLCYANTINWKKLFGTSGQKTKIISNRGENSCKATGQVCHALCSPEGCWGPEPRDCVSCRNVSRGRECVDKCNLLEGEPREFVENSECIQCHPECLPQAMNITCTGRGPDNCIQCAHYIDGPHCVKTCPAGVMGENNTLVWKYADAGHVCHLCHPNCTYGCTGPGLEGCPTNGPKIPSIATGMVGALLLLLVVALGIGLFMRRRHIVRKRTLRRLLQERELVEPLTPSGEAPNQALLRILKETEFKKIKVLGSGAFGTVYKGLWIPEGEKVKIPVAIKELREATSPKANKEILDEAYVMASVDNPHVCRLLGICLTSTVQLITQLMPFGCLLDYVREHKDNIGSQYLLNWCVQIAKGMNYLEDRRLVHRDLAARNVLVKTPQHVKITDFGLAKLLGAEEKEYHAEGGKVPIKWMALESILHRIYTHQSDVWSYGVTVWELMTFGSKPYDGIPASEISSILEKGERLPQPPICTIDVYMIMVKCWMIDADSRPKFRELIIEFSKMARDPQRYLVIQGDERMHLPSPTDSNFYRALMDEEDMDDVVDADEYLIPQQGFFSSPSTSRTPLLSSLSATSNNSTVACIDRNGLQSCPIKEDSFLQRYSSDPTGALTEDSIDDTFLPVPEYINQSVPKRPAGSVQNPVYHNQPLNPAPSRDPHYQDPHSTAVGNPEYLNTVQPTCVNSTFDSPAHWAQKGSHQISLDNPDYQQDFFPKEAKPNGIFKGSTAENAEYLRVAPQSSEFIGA
Description: as §1

Btk [1] = biological target: T1, Btk (Homo sapiens, UniProt Q06187); assay: Btk in vitro inhibitory activity (Method A, B or C); design: purified from insect cells as a full-length construct containing a N-terminal 6×-His tag; His6 (N); made in house; host or cells: insect cells (baculovirus, Sf21); conditions: one of the methods of Example 53a, 53b, 53c
T1 sequence (Q06187 whole entry): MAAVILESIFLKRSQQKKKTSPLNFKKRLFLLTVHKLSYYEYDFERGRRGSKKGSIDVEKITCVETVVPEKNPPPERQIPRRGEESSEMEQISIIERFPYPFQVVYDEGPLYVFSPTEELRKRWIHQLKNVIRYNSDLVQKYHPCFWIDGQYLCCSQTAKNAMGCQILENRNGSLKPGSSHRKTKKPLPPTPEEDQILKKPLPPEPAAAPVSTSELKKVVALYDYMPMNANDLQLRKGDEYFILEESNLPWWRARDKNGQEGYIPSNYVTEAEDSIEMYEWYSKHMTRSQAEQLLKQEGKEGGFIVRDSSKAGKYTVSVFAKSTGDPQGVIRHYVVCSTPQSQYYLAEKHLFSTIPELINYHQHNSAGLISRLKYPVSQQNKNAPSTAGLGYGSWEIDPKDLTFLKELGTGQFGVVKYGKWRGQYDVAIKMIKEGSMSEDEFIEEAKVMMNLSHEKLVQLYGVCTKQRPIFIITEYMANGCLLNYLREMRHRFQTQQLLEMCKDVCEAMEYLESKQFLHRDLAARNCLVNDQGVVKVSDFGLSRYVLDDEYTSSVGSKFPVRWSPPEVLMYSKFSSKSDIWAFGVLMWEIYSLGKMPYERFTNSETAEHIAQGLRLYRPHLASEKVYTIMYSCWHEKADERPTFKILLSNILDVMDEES
Description: Btk kinase activity is determined using a time-resolved fluorescence resonance energy transfer (TR-FRET) methodology. Measurements are performed in a reaction volume of 50 μL using 96-well assay plates. Kinase enzyme, inhibitor, ATP (at the Km for the kinase), and 1 μM peptide substrate (Biotin-AVLESEEELYSSARQ-NH2 (SEQ ID NO: 1)) are incubated in a reaction buffer composed of 20 mM Tris, 50 mM NaCl, MgCl2 (5-25 mM depending on the kinase), MnCl2 (0-10 mM), 1 mM DTT, 0.1 mM EDTA, 0.01% bovine serum albumin, 0.005% Tween-20, and 10% DMSO at pH 7.4 for one hour. The reaction is quenched by the addition of 1.2 equivalents of EDTA (relative to divalent cation) in 25 μL of 1× Lance buffer (Perkin-Elmer). Streptavidin-APC (Perkin-Elmer) and Eu-labeled p-Tyr100 antibody (Perkin-Elmer) in 1× Lance buffer are added in a 25 μL volume to give final concentrations of 100 nM and 2.5 nM, respectively, and the mixture is allowed to incubate for one hour. The TR-FRET signal is measured on a multimode plate reader with an excitation wavelength (λEx) of 330 nm and detection wavelengths (λEm) of 615 and 665 nm. Activity is determined by the ratio of the fluorescence at 665 nm to that at 615 nm. For each compound, enzyme activity is measured at various concentrations of compound. Negative control reactions are performed in the absence of inhibitor in replicates of six, and two no-enzyme controls are used to determine baseline fluorescence levels. Inhibition constants, Ki(app), ware obtained using the program BatchKi (Kuzmic et al. (2000), Anal. Biochem. 286:45-50). IC50s are obtained according to the equation: IC50={Ki(app)/1+[ATP]/Km^ATP)}+[E]total/2;
For all kinases, [ATP]=Km^ATP, [Btk]total=0.5 nM and [Lck]total=6 nM.
Kinase activity is measured in vitro using electrophoretic mobility shift assay. The kinase reactions are assembled in a total volume of 25 μL in 384 well plates. The reactions comprise: BTK enzyme (1 nM, N-terminal His6-tagged, recombinant, full-length, human BTK purified from baculovirus Sf21 insect cell system), inhibitor, ATP (16 μM, the apparent Km for the kinase), fluorescently labeled peptide substrate (1 μM, FAM-GEEPLYWSFPAKKK-NH2 (SEQ ID NO: 2)) in a reaction buffer composed of 100 mM HEPES, pH7.5, 5 mM MgCl2 1 mM DTT, 0.1% bovine serum albumin, 0.01% Triton X-100, and 1% DMSO. The reaction is incubated for one hour and is quenched by the addition of 45 μL of termination buffer (100 mM HEPES, pH7.5, 0.01% Triton X-100, 30 mM EDTA). The terminated reactions are analyzed using 12 channel LabChip® 3000 microfluidic detection instrument (Caliper Life Sciences). The enzymatic phosphorylation of the peptide results in a change in net charge, enabling electrophoretic separation of product from substrate peptide. As substrate and product peptides are separated, two peaks of fluorescence are observed. Change in the relative fluorescence intensity of the substrate and product peaks is the parameter measured, reflecting enzyme activity. In the presence of an inhibitor, the ratio between product and substrate is altered: the signal of the product decreases, while the signal of the substrate increases.
Activity in each sample is determined as the product to sum ratio (PSR):P/(S+P), where P is the peak height of the product peptide and S is the peak height of the substrate peptide. For each compound, enzyme activity is measured at various concentrations (12 concentrations of compound spaced by 3× dilution intervals). Negative control samples (0%−inhibition in the absence of inhibitor) and positive control samples (100%−inhibition, in the presence of 20 mM EDTA) are assembled in replicates of four and are used to calculate %−inhibition values for each inhibitor at each concentration. Percent inhibition (Pinh) is determined using following equation: […]

Btk [2] = biological target: T1, Btk; assay: Inhibition of a panel of kinases: Btk; conditions: kinase panel, Table 2
Description: as §1

Sequence of LCK (P06239 whole entry, species assumed): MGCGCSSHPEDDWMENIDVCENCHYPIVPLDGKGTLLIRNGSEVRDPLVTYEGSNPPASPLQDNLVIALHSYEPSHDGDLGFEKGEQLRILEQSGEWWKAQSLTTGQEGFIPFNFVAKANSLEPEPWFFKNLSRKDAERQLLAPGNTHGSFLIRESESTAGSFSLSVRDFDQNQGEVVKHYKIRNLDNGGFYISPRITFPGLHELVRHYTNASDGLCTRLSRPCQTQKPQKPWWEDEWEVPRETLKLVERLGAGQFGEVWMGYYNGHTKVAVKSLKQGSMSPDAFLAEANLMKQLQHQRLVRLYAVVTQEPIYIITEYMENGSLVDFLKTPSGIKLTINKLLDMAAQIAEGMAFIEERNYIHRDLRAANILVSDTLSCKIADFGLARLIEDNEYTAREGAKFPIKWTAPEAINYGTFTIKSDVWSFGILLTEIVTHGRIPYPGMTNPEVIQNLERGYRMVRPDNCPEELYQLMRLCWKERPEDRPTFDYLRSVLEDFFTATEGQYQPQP

SMILES | IC50 (LCK) | IC50 (EGFR) | IC50 (Btk [1]) | IC50 (Btk [2])
CC#CC(=O)N1CC[C@@H](n2nc(-c3ccc(C(=O)Nc4cc(CCC)ccn4)cc3)c3c(N)ncnc32)C1 [Compound ID 9, (R)-4-(4-amino-1-(1-but-2-ynoylpyrrolidin-3-yl)-1H-pyrazolo[3,4-d]pyrimidin-3-yl)-N-(4-propylpyridin-2-yl)benzamide] | 100 to 1000 nM | ≤ 10 nM | ≤ 10 nM | ≤ 10 nM
CC#CC(=O)N1CCC[C@@H](n2nc(-c3ccc(C(=O)Nc4ccccn4)cc3)c3c(N)ncnc32)C1 [Compound ID 10, (R)-4-(4-amino-1-(1-but-2-ynoylpiperidin-3-yl)-1H-pyrazolo[3,4-d]pyrimidin-3-yl)-N-(pyridin-2-yl)benzamide] | 100 to 1000 nM | ≤ 10 nM | ≤ 10 nM | ≤ 10 nM
CC#CC(=O)N1CCC[C@@H](n2nc(-c3ccc(C(=O)Nc4cc(C)ccn4)cc3)c3c(N)ncnc32)C1 [Compound ID 11, (R)-4-(4-amino-1-(1-but-2-ynoylpiperidin-3-yl)-1H-pyrazolo[3,4-d]pyrimidin-3-yl)-N-(4-methylpyridin-2-yl)benzamide] | 10 to 100 nM | 10 to 100 nM | ≤ 10 nM | ≤ 10 nM
CC#CC(=O)N1CCC[C@@H](n2nc(-c3ccc(C(=O)Nc4cc(C(F)(F)F)ccn4)cc3)c3c(N)ncnc32)C1 [Compound ID 12, (R)-4-(4-amino-1-(1-but-2-ynoylpiperidin-3-yl)-1H-pyrazolo[3,4-d]pyrimidin-3-yl)-N-(4-(trifluoromethyl)pyridin-2-yl)benzamide] | 10 to 100 nM | 100 to 1000 nM | ≤ 10 nM | ≤ 10 nM
CC#CC(=O)N1CCC[C@@H](n2nc(-c3ccc(C(=O)Nc4cc(CCC)ccn4)cc3)c3c(N)ncnc32)C1 [Compound ID 13, (R)-4-(4-amino-1-(1-but-2-ynoylpiperidin-3-yl)-1H-pyrazolo[3,4-d]pyrimidin-3-yl)-N-(4-propylpyridin-2-yl)benzamide] | ≤ 10 nM | 100 to 1000 nM | ≤ 10 nM | ≤ 10 nM
CC#CC(=O)N1CCC[C@@H](n2nc(-c3ccc(C(=O)Nc4cc(C#N)ccn4)cc3)c3c(N)ncnc32)C1 [Compound ID 14, (R)-4-(4-amino-1-(1-but-2-ynoylpiperidin-3-yl)-1H-pyrazolo[3,4-d]pyrimidin-3-yl)-N-(4-cyanopyridin-2-yl)benzamide] | 10 to 100 nM | 100 to 1000 nM | ≤ 10 nM | ≤ 10 nM
CC#CC(=O)N1CC[C@@H](n2nc(-c3ccc(C(=O)Nc4nccs4)cc3)c3c(N)ncnc32)C1 [Compound ID 15, (R)-4-(4-amino-1-(1-but-2-ynoylpyrrolidin-3-yl)-1H-pyrazolo[3,4-d]pyrimidin-3-yl)-N-(thiazol-2-yl)benzamide] | 100 to 1000 nM | ≤ 10 nM | ≤ 10 nM | ≤ 10 nM
COCC#CC(=O)N1CC[C@@H](n2nc(-c3ccc(C(=O)Nc4ccccn4)cc3)c3c(N)ncnc32)C1 [Compound ID 18, (R)-4-(4-amino-1-(1-(4-methoxybut-2-ynoyl)pyrrolidin-3-yl)-1H-pyrazolo[3,4-d]pyrimidin-3-yl)-N-(pyridin-2-yl)benzamide] | 10 to 100 nM | ≤ 10 nM | – | ≤ 10 nM
Nc1ncnc2c1c(-c1ccc(C(=O)Nc3ccccn3)cc1)nn2[C@@H]1CCN(C(=O)C#CCO)C1 [Compound ID 19, (R)-4-(4-amino-1-(1-(4-hydroxybut-2-ynoyl)pyrrolidin-3-yl)-1H-pyrazolo[3,4-d]pyrimidin-3-yl)-N-(pyridin-2-yl)benzamide] | 100 to 1000 nM | 10 to 100 nM | – | ≤ 10 nM
C=CC(=O)N1CC[C@@H](n2nc(-c3ccc(C(=O)Nc4cc(C#N)ccn4)cc3)c3c(N)ncnc32)C1 [Compound ID 24, (R)-4-(1-(1-acryloylpyrrolidin-3-yl)-4-amino-1H-pyrazolo[3,4-d]pyrimidin-3-yl)-N-(4-cyanopyridin-2-yl)benzamide] | – | – | ≤ 10 nM | –
C=CC(=O)N1CCC[C@@H](n2nc(-c3ccc(C(=O)Nc4ccccn4)cc3)c3c(N)ncnc32)C1 [Compound ID 25, (R)-4-(1-(1-acryloylpiperidin-3-yl)-4-amino-1H-pyrazolo[3,4-d]pyrimidin-3-yl)-N-(pyridin-2-yl)benzamide] | – | – | ≤ 10 nM | –

Next, values leading:

IC50 (LCK) | IC50 (EGFR) | IC50 (Btk [1]) | IC50 (Btk [2]) | SMILES
– | – | ≤ 10 nM | – | C=CC(=O)N1CCC[C@@H](n2nc(-c3ccc(C(=O)Nc4cc(C(C)C)ccn4)cc3)c3c(N)ncnc32)C1 [Compound ID 28, (R)-4-(1-(1-acryloylpiperidin-3-yl)-4-amino-1H-pyrazolo[3,4-d]pyrimidin-3-yl)-N-(4-isopropylpyridin-2-yl)benzamide]
– | – | ≤ 10 nM | – | C=CC(=O)N1CCC[C@@H](n2nc(-c3ccc(C(=O)Nc4cc(C#N)ccn4)cc3)c3c(N)ncnc32)C1 [Compound ID 29, (R)-4-(1-(1-acryloylpiperidin-3-yl)-4-amino-1H-pyrazolo[3,4-d]pyrimidin-3-yl)-N-(4-cyanopyridin-2-yl)benzamide]
– | – | ≤ 10 nM | – | C/C=C/C(=O)N1CC[C@@H](n2nc(-c3ccc(C(=O)Nc4cc(C)ccn4)cc3)c3c(N)ncnc32)C1 [Compound ID 32, (R,E)-4-(4-amino-1-(1-but-2-enoylpyrrolidin-3-yl)-1H-pyrazolo[3,4-d]pyrimidin-3-yl)-N-(4-methylpyridin-2-yl)benzamide]
– | – | > 10 nM | – | CC(C)=CC(=O)N1CC[C@@H](n2nc(-c3ccc(C(=O)Nc4cc(C)ccn4)cc3)c3c(N)ncnc32)C1 [Compound ID 33, (R)-4-(4-amino-1-(1-(3-methylbut-2-enoyl)pyrrolidin-3-yl)-1H-pyrazolo[3,4-d]pyrimidin-3-yl)-N-(4-methylpyridin-2-yl)benzamide]
– | – | ≤ 10 nM | – | Nc1ncnc2c1c(-c1ccc(C(=O)Nc3cc(C(F)(F)F)ccn3)cc1)nn2[C@@H]1CCN(C(=O)C#CCO)C1 [Compound ID 49, (R)-4-(4-amino-1-(1-(4-hydroxybut-2-ynoyl)pyrrolidin-3-yl)-1H-pyrazolo[3,4-d]pyrimidin-3-yl)-N-(4-(trifluoromethyl)pyridin-2-yl)benzamide]
– | – | ≤ 10 nM | – | COCC#CC(=O)N1CC[C@@H](n2nc(-c3ccc(C(=O)Nc4cc(C(F)(F)F)ccn4)cc3)c3c(N)ncnc32)C1 [Compound ID 50, (R)-4-(4-amino-1-(1-(4-methoxybut-2-ynoyl)pyrrolidin-3-yl)-1H-pyrazolo[3,4-d]pyrimidin-3-yl)-N-(4-(trifluoromethyl)pyridin-2-yl)benzamide]
– | – | > 10 nM | 100 to 1000 nM | N#CC1(C(=O)N2CC[C@@H](n3nc(-c4ccc(C(=O)Nc5ccccn5)cc4)c4c(N)ncnc43)C2)CC1 [Compound ID 52, (R)-4-(4-amino-1-(1-(1-cyanocyclopropanecarbonyl)pyrrolidin-3-yl)-1H-pyrazolo[3,4-d]pyrimidin-3-yl)-N-(pyridin-2-yl)benzamide]
